Measured values: ChEMBL document CHEMBL1122891, “Substituted 5H-dibenz[b,g]-1,4-oxazocines and related amino acids with antiinflammatory activity” (1985)

Columns and labels:
Format in all cases: functional
Rattus norvegicus [1] = assay: Percent reduction in swelling of the left hind paw in rat determined in adjuvant arthritis test, 50 mg/kg dose perorally; conditions: route oral
Rattus norvegicus [2] = assay: Percent reduction in swelling of the left hind paw in rat determined in adjuvant arthritis test, 25 mg/kg dose was perorally; conditions: route oral
Rattus norvegicus [3] = organism: Rattus norvegicus; assay: Activity relative to fenclofenac determined in adjuvant arthritis test
Rattus norvegicus [4] = assay: Percent reduction in swelling of the left hind paw in rat when 100 mg/kg of dose was injected perorally which was determined in adjuvant arthritis test; conditions: route oral
Rattus norvegicus [5] = assay: Percent reduction in swelling of the left hind paw in rat when 10 mg/kg of dose was injected perorally which was determined in adjuvant arthritis test; conditions: route oral
Rattus norvegicus [6] = assay: Minimum ulcerogenic dose was evaluated 24 hours after peroral administration; value may range from 100-200

For `Clc1ccc2c(c1)NCCc1ccccc1O2`, the Reduction (Rattus norvegicus [1]) was 0%.

Work on `O=C(Cc1ccccc1Oc1c(Cl)cccc1[N+](=O)[O-])NO` yielded a Reduction (Rattus norvegicus [1]) of 36%.

`NC(=O)Cc1ccccc1Oc1c(N)cccc1Cl` was tested, and the Reduction (Rattus norvegicus [1]) was 14%.

With `CCc1cc(N)c(Oc2ccc(C)cc2CC(=O)O)c(Cl)c1` the Reduction (Rattus norvegicus [2]) was 34% and the Relative potency (Rattus norvegicus [3]) was 1.

`CCCN1CCc2ccccc2Oc2c(Cl)cc(Cl)cc21` showed a Reduction (Rattus norvegicus [1]) of 39% and a Relative potency (Rattus norvegicus [3]) of 0.6.

In the case of `Nc1ccc(Cl)cc1Oc1ccccc1CC(=O)O`, the Reduction (Rattus norvegicus [2]) was 12%.

Work on `CCCC(=O)N1CCc2ccccc2Oc2c(Cl)cc(Cl)cc21` yielded a Reduction (Rattus norvegicus [4]) of 8%.

`c1ccc2c(c1)CCNc1ccccc1O2` showed a Reduction (Rattus norvegicus [1]) of 6%.

In the case of `O=C(O)Cc1ccccc1Oc1c(Cl)cc(Cl)cc1[N+](=O)[O-]`, the Reduction (Rattus norvegicus [2]) was 36%.

Work on `O=C(O)Cc1ccccc1Oc1cc(Cl)cc(Cl)c1[N+](=O)[O-]` yielded a Reduction (Rattus norvegicus [5]) of 34% and a Relative potency (Rattus norvegicus [3]) of 2.9.

`O=C(Cl)N1CCc2ccccc2Oc2c(Cl)cc(Cl)cc21` was tested, and the Reduction (Rattus norvegicus [1]) was 7%.

Work on `CCOC(=O)N1CCc2ccccc2Oc2c(Cl)cc(Cl)cc21` yielded a Reduction (Rattus norvegicus [5]) of 21% and a Relative potency (Rattus norvegicus [3]) of 0.5.

`Cc1c(Cl)ccc(N)c1Oc1ccccc1CC(=O)O` showed a Reduction (Rattus norvegicus [2]) of 34%, a Relative potency (Rattus norvegicus [3]) of 4.1 and an MUD (Rattus norvegicus [6]) of 100 mg/kg.

Work on `Cc1cc(Cl)cc([N+](=O)[O-])c1Oc1ccccc1CC(=O)O` yielded a Reduction (Rattus norvegicus [2]) of 34% and a Relative potency (Rattus norvegicus [3]) of 3.3.

`C[N+]1([O-])CCc2ccccc2Oc2c(Cl)cccc21` (stereo unspecified) showed a Reduction (Rattus norvegicus [2]) of 23% and a Relative potency (Rattus norvegicus [3]) of 0.7.

`CCN(CC)C(=O)Cc1ccccc1Oc1c(N)cccc1Cl` gave a Reduction (Rattus norvegicus [1]) of 6%.

Compound `COC(=O)Cc1ccccc1Oc1c(Cl)cccc1[N+](=O)[O-]` has a Reduction (Rattus norvegicus [2]) of 31%.

For `Clc1ccc2c(c1)CCNc1cccc(Cl)c1O2`, the Reduction (Rattus norvegicus [1]) was 16%.

`Clc1ccc2c(c1)CCNc1c(Cl)ccc(Cl)c1O2` gave a Reduction (Rattus norvegicus [1]) of 14%.

In the case of `COc1cc(Cl)c2c(c1)NCCc1ccccc1O2`, the Reduction (Rattus norvegicus [1]) was 18%.

With `Nc1cc(Cl)c(Cl)c(Cl)c1Oc1ccccc1CC(=O)O` the Reduction (Rattus norvegicus [5]) was 33% and the Relative potency (Rattus norvegicus [3]) was 8.2.

For `Nc1ccc(Cl)c(Cl)c1Oc1ccccc1CC(=O)O`, the Reduction (Rattus norvegicus [2]) was 33%.

`Cc1ccc(Oc2cc(Cl)c(Cl)cc2N)c(CC(=O)O)c1` gave a Reduction (Rattus norvegicus [2]) of 10%.

For `CCC(C)c1cc(N)c(Oc2ccc(C)cc2CC(=O)O)c(Cl)c1` (stereo unspecified), the Reduction (Rattus norvegicus [5]) was 10%.

For `Nc1c(Cl)cc(Cl)cc1Oc1ccccc1CC(=O)O`, the Reduction (Rattus norvegicus [5]) was 37% and the Relative potency (Rattus norvegicus [3]) was 6.6.

Compound `Clc1ccc(CN2CCc3ccccc3Oc3c(Cl)cc(Cl)cc32)cc1` has a Reduction (Rattus norvegicus [1]) of 10%.

With `NNC(=O)N1CCc2ccccc2Oc2c(Cl)cc(Cl)cc21` the Reduction (Rattus norvegicus [2]) was 32% and the Relative potency (Rattus norvegicus [3]) was 0.6.

`Cc1ccc2c(c1)CCNc1cc(Cl)cc(Cl)c1O2` was tested, and the Reduction (Rattus norvegicus [1]) was 17%.

With `Cc1cc(Cl)cc2c1Oc1ccccc1CCN2` the Reduction (Rattus norvegicus [1]) was 32% and the Relative potency (Rattus norvegicus [3]) was 0.9.

For `CNc1cccc(Cl)c1Oc1ccccc1CCO`, the Reduction (Rattus norvegicus [5]) was 36%, the Relative potency (Rattus norvegicus [3]) was 5 and the MUD (Rattus norvegicus [6]) was 100 mg/kg.

With `CNC(=O)N1CCc2ccccc2Oc2c(Cl)cc(Cl)cc21` the Reduction (Rattus norvegicus [5]) was 4%.

Compound `O=C(O)Cc1cccc(Cl)c1Oc1c(Cl)cccc1[N+](=O)[O-]` has a Reduction (Rattus norvegicus [2]) of 1%.

Compound `Cc1cccc(CC(=O)O)c1Oc1c(Cl)cccc1[N+](=O)[O-]` has a Reduction (Rattus norvegicus [2]) of 0%.

`O=CN1CCc2ccccc2Oc2c(Cl)cccc21` was tested, and the Reduction (Rattus norvegicus [4]) was 33%.

With `Nc1cccc(Cl)c1Oc1cc(Cl)ccc1CC(=O)O` the Reduction (Rattus norvegicus [2]) was 1%.

`Cc1ccc2c(c1)NCCc1ccccc1O2` was tested, and the Reduction (Rattus norvegicus [1]) was 0%.

Work on `Clc1ccc2c(c1)Oc1ccccc1CCN2` yielded a Reduction (Rattus norvegicus [1]) of 0%.

`CN1CCc2ccccc2Oc2c(Cl)cc(Cl)cc21` was tested, and the Reduction (Rattus norvegicus [1]) was 35% and the Relative potency (Rattus norvegicus [3]) was 2.4.

With `Cc1ccc2c(c1)CCNc1cccc(Cl)c1O2` the Reduction (Rattus norvegicus [1]) was 22%.

With `Nc1cccc(Cl)c1Oc1ccccc1CC(=O)OC1OC(=O)c2ccccc21` (stereo unspecified) the Reduction (Rattus norvegicus [4]) was 36%.

Compound `CN1CCc2ccccc2Oc2c(Cl)cccc21` has a Reduction (Rattus norvegicus [1]) of 31% and a Relative potency (Rattus norvegicus [3]) of 1.4.

For `O=C(O)Cc1ccccc1Oc1ccc(C(F)(F)F)cc1[N+](=O)[O-]`, the Reduction (Rattus norvegicus [4]) was 29%.

`CCC[N+]1([O-])CCc2ccccc2Oc2c(Cl)cc(Cl)cc21` (stereo unspecified) gave a Reduction (Rattus norvegicus [1]) of 36%.

For `Clc1cccc2c1Oc1ccccc1CCN2`, the Relative potency (Rattus norvegicus [3]) was 0.2 and the Reduction (Rattus norvegicus [4]) was 33%.

With `O=C(O)Cc1ccccc1Oc1c(Cl)cc(Cl)c(Cl)c1[N+](=O)[O-]` the Reduction (Rattus norvegicus [5]) was 30%.

For `Fc1cccc2c1Oc1ccccc1CCN2`, the Reduction (Rattus norvegicus [1]) was 0%.

With `CCC(C)c1cc(Cl)c2c(c1)NCCc1cc(C)ccc1O2` (stereo unspecified) the Reduction (Rattus norvegicus [1]) was 14%.

`Cc1c(Cl)c(C)c2c(c1Cl)Oc1ccccc1CCN2` showed a Reduction (Rattus norvegicus [1]) of 6%.

`C/C=C/CN1CCc2ccccc2Oc2c(Cl)cc(Cl)cc21` gave a Reduction (Rattus norvegicus [1]) of 21%.

`Nc1cccc(F)c1Oc1ccccc1CC(=O)O` was tested, and the Reduction (Rattus norvegicus [2]) was 27%.

For `CC(C)(C)OC(=O)Cc1ccccc1Oc1c(Cl)cccc1[N+](=O)[O-]`, the Reduction (Rattus norvegicus [1]) was 21%.

With `Clc1cc(Cl)c2c(c1)N(Cc1ccccc1)CCc1ccccc1O2` the Reduction (Rattus norvegicus [5]) was 2%.

Compound `COC(=O)Cc1ccccc1Oc1c(Cl)cc(Cl)cc1NC(C)=O` has a Reduction (Rattus norvegicus [2]) of 18%.

`CCc1cc(Cl)cc(N)c1Oc1ccccc1CC(=O)O` showed a Reduction (Rattus norvegicus [5]) of 25% and a Relative potency (Rattus norvegicus [3]) of 2.8.

`COC(=O)Cc1ccccc1Oc1c(N)cccc1Cl` showed a Reduction (Rattus norvegicus [2]) of 35%.

`COc1cc(N)c(Oc2ccccc2CC(=O)O)c(Cl)c1` was tested, and the Reduction (Rattus norvegicus [2]) was 24%.

In the case of `Nc1cccc(N)c1Oc1ccccc1CC(=O)O`, the Reduction (Rattus norvegicus [2]) was 5%.

With `CC(=O)NNC(=O)N1CCc2ccccc2Oc2c(Cl)cc(Cl)cc21` the Reduction (Rattus norvegicus [4]) was 18%.

Compound `CN1CCc2cc(Cl)ccc2Oc2c(Cl)cccc21` has a Reduction (Rattus norvegicus [1]) of 13%.

Work on `Clc1ccc2c(c1)Oc1c(Cl)cccc1NCC2` yielded a Reduction (Rattus norvegicus [1]) of 10%.

With `Cc1cc(N)c(Oc2ccc(C)cc2CC(=O)O)c(Cl)c1` the Reduction (Rattus norvegicus [2]) was 3%.

`O=C(O)Cc1ccccc1Oc1c([N+](=O)[O-])cc(Cl)c(Cl)c1Cl` showed a Reduction (Rattus norvegicus [5]) of 17% and a Relative potency (Rattus norvegicus [3]) of 0.6.

`Cc1cc(Cl)c2c(c1)NCCc1cc(Cl)ccc1O2` gave a Relative potency (Rattus norvegicus [3]) of 0.5 and a Reduction (Rattus norvegicus [4]) of 21%.

Work on `COC(=O)Cc1ccccc1Oc1c(Cl)cc(Cl)cc1N(C)C` yielded a Reduction (Rattus norvegicus [5]) of 33% and a Relative potency (Rattus norvegicus [3]) of 2.7.

Work on `Clc1ccc2c(c1)CCNc1cc(Cl)cc(Cl)c1O2` yielded a Reduction (Rattus norvegicus [1]) of 25% and a Relative potency (Rattus norvegicus [3]) of 0.8.

Work on `O=C(O)Cc1ccccc1Oc1c([N+](=O)[O-])ccc(Cl)c1Cl` yielded a Reduction (Rattus norvegicus [2]) of 25%.

Work on `Cc1ccc2c(c1)CCN(C)c1cccc(Cl)c1O2` yielded a Reduction (Rattus norvegicus [1]) of 15%.

`C[N+]1([O-])CCc2ccccc2Oc2c(Cl)cc(Cl)cc21` (stereo unspecified) showed a Reduction (Rattus norvegicus [1]) of 42% and a Relative potency (Rattus norvegicus [3]) of 2.2.

`Cc1cccc([N+](=O)[O-])c1Oc1ccccc1CC(=O)O` was tested, and the Reduction (Rattus norvegicus [5]) was 26%.

Work on `Cc1cc(N)c(Oc2ccccc2CC(=O)O)c(Cl)c1` yielded a Reduction (Rattus norvegicus [2]) of 20%.

With `Cc1cc(N)c(Oc2ccc(Cl)cc2CC(=O)O)c(Cl)c1` the Reduction (Rattus norvegicus [2]) was 32% and the Relative potency (Rattus norvegicus [3]) was 1.4.

`O=C(c1ccc(Cl)cc1)N1CCc2ccccc2Oc2c(Cl)cc(Cl)cc21` showed a Reduction (Rattus norvegicus [1]) of 0%.

`CCc1cc(Cl)c2c(c1)NCCc1cc(C)ccc1O2` showed a Reduction (Rattus norvegicus [4]) of 13%.

Work on `Nc1cc(Cl)ccc1Oc1ccccc1CC(=O)O` yielded a Reduction (Rattus norvegicus [4]) of 4%.

In the case of `O=C(O)Cc1ccccc1Oc1ccccc1[N+](=O)[O-]`, the Reduction (Rattus norvegicus [1]) was 1%.

Compound `CCc1cc(N)c(Oc2ccc(C)cc2CC(=O)O)c(F)c1` has a Reduction (Rattus norvegicus [2]) of 1% and an MUD (Rattus norvegicus [6]) of 100 mg/kg.

In the case of `C=CCN1CCc2ccccc2Oc2c(Cl)cc(Cl)cc21`, the Reduction (Rattus norvegicus [1]) was 18%.

In the case of `Oc1ccc2c(c1)CCNc1cc(Cl)cc(Cl)c1O2`, the Reduction (Rattus norvegicus [5]) was 2%.

For `CNc1cc(Cl)cc(C)c1Oc1ccccc1CC(=O)O`, the Reduction (Rattus norvegicus [5]) was 28% and the Relative potency (Rattus norvegicus [3]) was 2.8.

`Cc1ccc2c(c1)CCNc1cc(Cl)c(Cl)cc1O2` was tested, and the Reduction (Rattus norvegicus [1]) was 8%.
